Laboratory results: US20160075682A1, “INHIBITORS OF NICOTINAMIDE PHOSPHORIBOSYLTRANSFERASE, COMPOSITIONS, PRODUCTS AND USES THEREOF” (UNIVERSITÀ DEGLI STUDI DEL PIEMONTE ORIENTALE "AMEDEO …, priority 2013, published 2016)

Experiment: Metabolites generated from hydrolyses in RLM or HLM incubations (LC-ESI-MS)
Format: in vitro ADME, rat, human
Settings: RLM or HLM incubation, 60 minutes at 37° C.
Description: Male Wistar rat liver microsomes (RLM), (protein concentration: 25 mg/ml determined using the Omura and Sato method, total P450: 0.64 nmol/mg protein) were used throughout this study and prepared using an internal protocol. The cryopreserved pooled human liver microsomes (HLM), (pooled mixed sex, ten individual donors, protein concentration: 20 mg/ml, total P450: 0.36 nmol/mg) were purchased from BD Gentest™ (Woburn, Mass.) and used throughout this study.
The standard incubation mixture (1 ml final volume), was carried out in a 50 mM TRIS (Tris[hydroxymethyl]aminomethane) buffer (pH 7.4) containing 10 μl of acetonitrile (1% of total volume), and 50 μM substrate compounds. After pre-equilibration of the mixture, an appropriate volume of RLM or HLM suspension was added to give a final protein concentration of 1.0 mg/mL. The mixture was shaken for 60 minutes at 37° C. Control incubations were carried out without microsomes. Each incubation was stopped by addition of 1 ml ice-cold acetonitrile, vortexed and centrifuged at 11,000 r.p.m. for 5 min. The supernatants were analysed by LC-DAD-UV and LC-ESI-MS systems to determine the metabolic stability (% substrate residue) and the structure of metabolites respectively (Table 1).
A Shimadzu HPLC system (Shimadzu, Kyoto, Japan), consisting of two LC-10AD Vp module pumps, an SLC-10A Vp system controller, an SIL-10AD Vp autosampler, and a DGU-14-A on-line degasser were used for the analysis. Chromatographic separation was performed on a Phenomenex Luna C18(2) 150×4.6 mm (5 μm) (Phenomenex srl, Castel Bolognese, Italy) as a stationary phase protected by a C18 SecurityGuard (Phenomenex srl, Castel Bolognese, Italy). The SPD-M10Avp photodiode array detector was used to detect the analytes. LC-Solution 1.24 software was used to process the chromatograms. Aliquots (20 μL) of supernatants obtained from incubations were injected onto the HPLC system and eluted with a mobile phase (flow rate 1.0 mL/min) consisting of a A: 0.5% formic acid solution, B: acetonitrile/methanol 8:2. A Thermo Finningan LCQ Deca XP plus system equipped with a quaternary pump, a Surveyor AS autosampler, a Surveyor photodiode array detector and a vacuum degasser was used for LC/MS analyses (Thermo Electron Corporation, Waltham, Mass.). All the chromatographic separations were performed on a Phenomenex Luna C18(2)150×2 mm (4 μm) (kept at a 35° C.) as a stationary phase protected by a C18 SecurityGuard (Phenomenex srl, Castel Bolognese, Italy). Aliquots (2.0 μl) of supernatants obtained from incubations were injected onto the system and eluted with a mobile phase (flow rate 0.2 ml/min) consisting of a A: 0.2% formic acid solution, B: acetonitrile/methanol 8:2. The eluate was injected into the electrospray ion source (ESI) and MS and MS^n spectra were acquired and processed using Xcalibur® software. The operating conditions on the ion trap mass spectrometer were as follows: Positive mode, spray voltage, 5.30 kV; source current, 80 μA; capillary temperature, 350° C.; capillary voltage, 21.00 V; tube lens offset, 15.00 V; multipole 1 offset, −5.75 V; multipole 2 offset, −9.00 V; sheath gas flow (N2), 55 Auxiliary Units.

Row | Metabolites generated from hydrolyses | Compound
1 | no | c1ccc(-c2ccccc2OCCCCCCn2cc(-c3cccnc3)nn2)cc1 [3-(1-(6-([1,1′-biphenyl]-2-yloxy)hexyl)-1H-1,2,3-triazol-4-yl)pyridine]
2 | no | O=C(NCCCCCCCn1cc(-c2cccnc2)nn1)c1ccccc1-c1ccccc1 [N-(7-(4-(pyridin-3-yl)-1H-1,2,3-triazol-1-yl)heptyl)-[1,1′-biphenyl]-2-carboxamide]
